In ChEMBL document CHEMBL4342446, “Isopimarane Diterpenoids from the Rhizomes of Kaempferia marginata and Their Potential Anti-inflammatory Activities” (J Nat Prod, 2020):

Tested on: RAW264.7
Test: Anti-inflammatory activity in mouse RAW264.7 cells assessed as inhibition of lipopolysaccharide-induced nitric oxide production
Assay type: functional, cell-based

IC50 | SMILES
40.3 µM | C=C[C@]1(C)C=C2CC[C@H]3C(C)(C)C[C@H](O)[C@H](O)[C@]3(C)[C@H]2CC1
> 50 µM | C=C[C@]1(C)C=C2C(=O)C[C@H]3C(C)(C)CC[C@H](O)[C@]3(C)[C@H]2CC1
28.1 µM | C=C[C@]1(C)C=C2CC[C@H]3C(C)(C)[C@H](O)C[C@H](O)[C@]3(C)[C@H]2[C@H](O)C1
> 50 µM | C=C[C@]1(C)C=C2[C@@H](O)C[C@H]3C(C)(C)C[C@H](O)[C@H](O)[C@]3(C)[C@H]2CC1
> 50 µM | C=C[C@]1(C)C=C2CC[C@H]3C(C)(C)[C@@H](O)C[C@H](O)[C@]3(C)[C@H]2[C@H](O)C1
> 50 µM | C=C[C@]1(C)C=C2CC[C@H]3C(C)(C)C[C@H](O)[C@H](OC(C)=O)[C@]3(C)[C@H]2CC1

Continued, compound first:

SMILES | IC50
C=C[C@]1(C)C=C2C(=O)C[C@H]3C(C)(C)C[C@H](O)C[C@]3(C)[C@H]2CC1 | > 50 µM
C=C[C@]1(C)C=C2CC[C@H]3C(C)(C)CC[C@H](O)[C@]3(C)[C@H]2[C@H](O)C1 | 36.7 µM
C[C@@H]1C[C@H]2[C@@H]3CCC4=CC(=O)C=C[C@]4(C)[C@@]3(F)[C@@H](O)C[C@]2(C)[C@@]1(O)C(=O)CO [DEXAMETHASONE] | 5.5 µM
C=C[C@]1(C)C=C2C[C@@H](OC(C)=O)[C@H]3C(C)(C)[C@@H](O)CC(=O)[C@]3(C)[C@H]2[C@@H](O)C1 | > 50 µM
C=C[C@]1(C)C=C2CC[C@H]3C(C)(C)CC[C@H](O)[C@]3(C)[C@H]2CC1 | 50 µM
C=C[C@]1(C)C=C2[C@H](O)C[C@H]3C(C)(C)CC[C@H](O)[C@]3(C)[C@H]2[C@H](O)C1 | > 50 µM
C=C[C@]1(C)C=C2C[C@@H](O)[C@H]3C(C)(C)C[C@H](O)[C@H](O)[C@]3(C)[C@H]2CC1 | > 50 µM

Tested on: RAW264.7
Test: Cytotoxicity against mouse RAW264.7 cells
Assay type: cell-based

SMILES | Activity
C=C[C@]1(C)C=C2CC[C@H]3C(C)(C)[C@H](O)C[C@H](O)[C@]3(C)[C@H]2[C@H](O)C1 | Non-Toxic
